Assay results published in patent US20140249135A1, “PIM KINASE INHIBITORS AND METHODS OF THEIR USE” (NOVARTIS AG, priority 2007, published 2014).

How the values were obtained:
Type in all cases: biochemical
Pim1 kinase = Pim1 kinase (Homo sapiens, UniProt P11309); assay: Pim1 ATP depletion assay; details: Pim1 ATP depletion assay; read-out: IC50 (μM) PIM1;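 also: Luciferase-luciferin luminescence readout of residual ATP after PIM1 transfers phosphate to a peptide substrate, 40 µM ATP added, reaction run to roughly half ATP consumption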
Sequence of Pim1 kinase (P11309 whole entry): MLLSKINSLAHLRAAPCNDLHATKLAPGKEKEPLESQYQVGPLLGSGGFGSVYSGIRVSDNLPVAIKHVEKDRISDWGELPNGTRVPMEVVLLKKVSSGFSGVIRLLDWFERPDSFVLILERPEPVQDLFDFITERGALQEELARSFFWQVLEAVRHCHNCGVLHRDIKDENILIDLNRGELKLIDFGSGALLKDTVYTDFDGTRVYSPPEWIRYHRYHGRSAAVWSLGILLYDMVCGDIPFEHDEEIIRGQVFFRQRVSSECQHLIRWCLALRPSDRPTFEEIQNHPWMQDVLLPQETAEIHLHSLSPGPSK

Pim3 kinase = Pim3 kinase (Homo sapiens, UniProt Q86V86); assay: Pim3 ATP depletion assay; details: read-out: IC50 (μM) PIM3
Pim2 kinase = Pim2 kinase (Homo sapiens, UniProt Q9P1W9); assay: Pim2 ATP depletion assay; details: read-out: IC50 (μM) PIM2;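 also: Luciferase-based luminescent readout of ATP remaining after PIM2 phosphorylates a BAD peptide, final 5 nM enzyme, 4 µM ATP, 10 µM peptide, 2.5% DMSO, run to roughly half ATP consumption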
Sequence of Pim2 kinase (Q9P1W9 whole entry): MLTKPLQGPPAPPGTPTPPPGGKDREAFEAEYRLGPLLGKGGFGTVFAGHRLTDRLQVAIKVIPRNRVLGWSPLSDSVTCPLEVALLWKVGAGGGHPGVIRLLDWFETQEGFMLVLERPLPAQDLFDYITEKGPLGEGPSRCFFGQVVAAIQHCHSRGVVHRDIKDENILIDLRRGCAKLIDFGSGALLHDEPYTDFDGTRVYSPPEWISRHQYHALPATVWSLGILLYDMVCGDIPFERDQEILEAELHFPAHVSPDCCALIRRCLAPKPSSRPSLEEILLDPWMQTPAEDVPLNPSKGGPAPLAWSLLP

IC50 (Pim1 kinase)	IC50 (Pim3 kinase)	IC50 (Pim2 kinase)	SMILES
< 1 µM	< 1 µM	< 1 µM	Nc1ccc(-c2cccc(C(F)(F)F)c2)nc1C(=O)Nc1cnccc1N1CCC[C@H](N)C1 [Example 460, 3-Amino-6-(3-trifluoromethyl-phenyl)-pyridine-2-carboxylic acid (3-amino-3,4,5,6-tetrahydro-2H-[1,4′]bipyridinyl-3′-yl)-amide]
< 1 µM	< 1 µM	< 1 µM	N#Cc1cccc(-c2ccc(N)c(C(=O)Nc3cnccc3N3CCC[C@H](N)C3)n2)c1 [Example 461, 3-Amino-6-(3-cyano-phenyl)-pyridine-2-carboxylic acid (3-amino-3,4,5,6-tetrahydro-2H-[1,4′]bipyridinyl-3′-yl)-amide]
< 1 µM	< 1 µM	< 1 µM	Nc1ccc(-c2c(F)ccc(OCc3ccccc3Cl)c2F)nc1C(=O)Nc1cnccc1N1CCC[C@H](N)C1 [Example 464, 3-Amino-6-[3-(2-chloro-benzyloxy)-2,6-difluoro-phenyl]-pyridine-2-carboxylic acid (3-amino-3,4,5,6-tetrahydro-2H-[1,4′]bipyridinyl-3′-yl)-amide]
< 1 µM	< 1 µM	< 1 µM	Nc1ccc(-c2c(F)ccc(OCc3ccccc3F)c2F)nc1C(=O)Nc1cnccc1N1CCC[C@H](N)C1 [Example 465, 3-Amino-6-[2,6-difluoro-3-(2-fluoro-benzyloxy)-phenyl]-pyridine-2-carboxylic acid (3-amino-3,4,5,6-tetrahydro-2H-[1,4′]bipyridinyl-3′-yl)-amide]
< 1 µM	< 1 µM	< 1 µM	CC(C)Oc1ccc(F)c(-c2ccc(N)c(C(=O)Nc3cnccc3N3CCC[C@H](N)C3)n2)c1 [Example 467, 3-Amino-6-(2-fluoro-5-isopropoxy-phenyl)-pyridine-2-carboxylic acid (3-amino-3,4,5,6-tetrahydro-2H-[1,4′]bipyridinyl-3′-yl)-amide]
< 1 µM	< 1 µM	< 1 µM	CCCOc1ccc(F)c(-c2ccc(N)c(C(=O)Nc3cnccc3N3CCC[C@H](N)C3)n2)c1 [Example 468, 3-Amino-6-(2-fluoro-5-propoxy-phenyl)-pyridine-2-carboxylic acid (3-amino-3,4,5,6-tetrahydro-2H-[1,4′]bipyridinyl-3′-yl)-amide]
< 1 µM	< 1 µM	< 1 µM	CCOc1ccc(F)c(-c2ccc(N)c(C(=O)Nc3cnccc3N3CCC[C@H](N)C3)n2)c1 [Example 469, 3-Amino-6-(5-ethoxy-2-fluoro-phenyl)-pyridine-2-carboxylic acid (3-amino-3,4,5,6-tetrahydro-2H-[1,4′]bipyridinyl-3′-yl)-amide]
< 1 µM	< 1 µM	< 1 µM	COc1ccc(F)c(-c2ccc(N)c(C(=O)Nc3cnccc3N3CCC[C@H](N)C3)n2)c1 [Example 470, 3-Amino-6-(2-fluoro-5-methoxy-phenyl)-pyridine-2-carboxylic acid (3-amino-3,4,5,6-tetrahydro-2H-[1,4′]bipyridinyl-3′-yl)-amide]
< 1 µM	< 1 µM	< 1 µM	COc1cccc(-c2ccc(N)c(C(=O)Nc3cnccc3N3CCC[C@H](N)C3)n2)c1F [Example 471, 3-Amino-6-(2-fluoro-3-methoxy-phenyl)-pyridine-2-carboxylic acid (3-amino-3,4,5,6-tetrahydro-2H-[1,4′]bipyridinyl-3′-yl)-amide]
< 1 µM	< 1 µM	< 1 µM	Cc1ccncc1-c1ccc(N)c(C(=O)Nc2cnccc2N2CCC[C@H](N)C2)n1 [Example 472, 5-Amino-4′-methyl-[2,3′]bi-pyridinyl-6-carboxylic acid (3-amino-3,4,5,6-tetrahydro-2H-[1,4′]bipyridinyl-3′-yl)-amide]
< 1 µM	< 1 µM	< 1 µM	Nc1ccc(-c2ccc(-c3ccccc3)cc2)nc1C(=O)Nc1cnccc1N1CCC[C@H](N)C1 [Example 473, 3-Amino-6-biphenyl-4-yl-pyridine-2-carboxylic acid (3-amino-3,4,5,6-tetrahydro-2H-[1,4′]bipyridinyl-3′-yl)-amide]
< 1 µM	< 1 µM	< 1 µM	Nc1ccc(-c2sccc2Cl)nc1C(=O)Nc1cnccc1N1CCC[C@H](N)C1 [Example 474, 3-Amino-6-(3-chloro-thiophen-2-yl)-pyridine-2-carboxylic acid (3-amino-3,4,5,6-tetrahydro-2H-[1,4′]bipyridinyl-3′-yl)-amide]
< 1 µM	< 1 µM	< 1 µM	Nc1ccc(-c2cccs2)nc1C(=O)Nc1cnccc1N1CCC[C@H](N)C1 [Example 475, 3-Amino-6-thiophen-2-yl-pyridine-2-carboxylic acid (3-amino-3,4,5,6-tetrahydro-2H-[1,4′]bipyridinyl-3′-yl)-amide]
< 1 µM	< 1 µM	< 1 µM	Cc1ccc(-c2ccc(N)c(C(=O)Nc3cnccc3N3CCC[C@H](N)C3)n2)c(F)n1 [Example 476, 5-Amino-2′-fluoro-6′-methyl-[2,3′]bipyridinyl-6-carboxylic acid (3-amino-3,4,5,6-tetrahydro-2H-[1,4′]bipyridinyl-3′-yl)-amide]
< 1 µM	< 1 µM	< 1 µM	COc1cc(F)c(-c2ccc(N)c(C(=O)Nc3cnccc3N3CCC[C@H](N)C3)n2)cc1F [Example 477, 3-Amino-6-(2,5-difluoro-4-methoxy-phenyl)-pyridine-2-carboxylic acid (3-amino-3,4,5,6-tetrahydro-2H-[1,4′]bipyridinyl-3′-yl)-amide]
< 1 µM	< 1 µM	< 1 µM	Cc1cc(F)c(-c2ccc(N)c(C(=O)Nc3cnccc3N3CCC[C@H](N)C3)n2)cc1Cl [Example 478, 3-Amino-6-(5-chloro-2-fluoro-4-methyl-phenyl)-pyridine-2-carboxylic acid (3-amino-3,4,5,6-tetrahydro-2H-[1,4′]bipyridinyl-3′-yl)-amide]
< 1 µM	< 1 µM	< 1 µM	Nc1ccc(-c2cccc(Cl)c2F)nc1C(=O)Nc1cnccc1N1CCC[C@H](N)C1 [Example 479, 3-Amino-6-(3-chloro-2-fluoro-phenyl)-pyridine-2-carboxylic acid (3-amino-3,4,5,6-tetrahydro-2H-[1,4′]bipyridinyl-3′-yl)-amide]
< 1 µM	< 1 µM	< 1 µM	Nc1ccc(-c2ccc(S(N)(=O)=O)cc2)nc1C(=O)Nc1cnccc1N1CCC[C@H](N)C1 [Example 480, 3-Amino-6-(4-sulfamoyl-phenyl)-pyridine-2-carboxylic acid (3-amino-3,4,5,6-tetrahydro-2H-[1,4′]bipyridinyl-3′-yl)-amide]
< 1 µM	< 1 µM	< 1 µM	Nc1ccc(-c2cccc(S(N)(=O)=O)c2)nc1C(=O)Nc1cnccc1N1CCC[C@H](N)C1 [Example 481, 3-Amino-6-(3-sulfamoyl-phenyl)-pyridine-2-carboxylic acid (3-amino-3,4,5,6-tetrahydro-2H-[1,4′]bipyridinyl-3′-yl)-amide]
< 1 µM	< 1 µM	< 1 µM	Nc1ncc(-c2ccc(N)c(C(=O)Nc3cnccc3N3CCC[C@H](N)C3)n2)c(C(F)(F)F)n1 [Example 486, 3-Amino-6-(2-amino-4-trifluoromethyl-pyrimidin-5-yl)-pyridine-2-carboxylic acid (3-amino-3,4,5,6-tetrahydro-2H-[1,4′]bipyridinyl-3′-yl)-amide]
< 1 µM	< 1 µM	< 1 µM	CC(C)Oc1ccc(F)c(-c2ccc(N)c(C(=O)Nc3cnccc3N3CCC[C@H](N)C3)n2)c1F [Example 488, 3-Amino-6-(2,6-difIuoro-3-isopropoxy-phenyl)-pyridine-2-carboxylic acid (3-amino-3,4,5,6-tetrahydro-2H-[1,4′]bipyridinyl-3′-yl)-amide]
< 1 µM	< 1 µM	< 1 µM	Cc1cscc1-c1ccc(N)c(C(=O)Nc2cnccc2N2CCC[C@H](N)C2)n1 [Example 489, 3-Amino-6-(4-methyl-thiophen-3-yl)-pyridine-2-carboxylic acid (3-amino-3,4,5,6-tetrahydro-2H-[1,4′]bipyridinyl-3′-yl)-amide]
< 1 µM	< 1 µM	< 1 µM	N#Cc1ccsc1-c1ccc(N)c(C(=O)Nc2cnccc2N2CCC[C@H](N)C2)n1 [Example 490, 3-Amino-6-(3-cyano-thiophen-2-yl)-pyridine-2-carboxylic acid (3-amino-3,4,5,6-tetrahydro-2H-[1,4′]bipyridinyl-3′-yl)-amide]
< 1 µM	< 1 µM	< 1 µM	CCOc1ccc(F)c(-c2ccc(N)c(C(=O)Nc3cnccc3N3CCC[C@H](N)C3)n2)c1F [Example 492, 3-Amino-6-(3-ethoxy-2,6-difluoro-phenyl)-pyridine-2-carboxylic acid (3-amino-3,4,5,6-tetrahydro-2H-[1,4′]bipyridinyl-3′-yl)-amide]
< 1 µM	< 1 µM	< 1 µM	COc1ccc(F)c(-c2ccc(N)c(C(=O)Nc3cnccc3N3CCC[C@H](N)C3)n2)c1F [Example 493, 3-Amino-6-(2,6-difluoro-3-methoxy-phenyl)-pyridine-2-carboxylic acid (3-amino-3,4,5,6-tetrahydro-2H-[1,4′]bipyridinyl-3′-yl)-amide]

SMILES	IC50 (Pim1 kinase)	IC50 (Pim3 kinase)	IC50 (Pim2 kinase)
CCCCOc1ccc(F)c(-c2ccc(N)c(C(=O)Nc3cnccc3N3CCC[C@H](N)C3)n2)c1F [Example 466, 3-Amino-6-(3-butoxy-2,6-difluoro-phenyl)-pyridine-2-carboxylic acid (3-amino-3,4,5,6-tetrahydro-2H-[1,4′]bipyridinyl-3′-yl)-amide]	< 1 µM	< 1 µM	< 1 µM
